Measured values as given in patent publication US20110165128A1, “HOMING IN MESENCHYMAL STEM CELLS” (Columbia University in the City of New York, priority 2008, published 2011).

Tested on: adhesion of hMSCs to HUVECs
Assay: Adhesion assay: adhesion of hMSCs to endothelial cells (HUVECs)
Assay type: cell-based, human
Conditions: 0.5 μg/ml SDF-1 or 10 μM AMD3100
Excerpt: Exposure of cells to hypoxia: HUVECs were exposed to hypoxia in a BD GasPak EZ Anaerobe Gas Generating Pouch System with an Indicator (BD Biosciences) as described (Potapova, 2007). As certified by the manufacturer, the Anaerobe Gas Generating Pouch System produces an atmosphere containing 10% carbon dioxide and 1% oxygen.
Adhesion Assay: Adhesion of hMSCs to endothelial cells was studied using hMSCs isolated from a monolayer or 3 day old hMSC spheroids. Cells were dissociated using 0.25% trypsin-EDTA solution (Lonza) for 15 min in the case of hMSC monolayers, or for 90 min in the case of the spheroids. Trypsinization was stopped by addition of trypsin inhibitor solution (Lonza). Isolated cells were washed with PBS, labeled with 2 μg/ml Calcein AM in HBSS for 45 min at 37 °C in a humidified atmosphere of 5% CO2, washed with HBSS and resuspended in DMEM supplemented with 5% fetal bovine serum. HUVECs were plated in 24 well plates and maintained in EBM-2 growth media for 2-3 days until they reached confluence. For the adhesion assay, EBM-2 media was replaced with 0.5 ml of DMEM supplemented with 5% fetal bovine serum. hMSCs (10,000 cells per well) were added to endothelial cells. The adhesion assay was performed in the presence 0.5 μg/ml SDF-1, 10 μM AMD3100 or without additives. Plates were placed on a rotation platform (30 rotations per min) and incubated for 30 min at 37° C. […] Fluorescence was acquired from the bottom of the plates using a POLARstar OPTIMA microplate reader at excitation/emission wavelengths of 485/520 nm. Background fluorescence was determined in the wells containing no hMSCs but a monolayer of endothelial cells. Total cell load was estimated as the fluorescence from non-washed wells with added hMSCs. A minimum six wells were used to estimate background fluorescence, total cell load or fluorescence from adhered cells. Percent of bound cells was calculated as a ratio between fluorescence of adhered cells and total cell load after subtraction of background fluorescence. […]

In the case of c1cc(CN2CCCNCCNCCCNCC2)ccc1CN1CCCNCCNCCCNCC1 [AMD3100], the “effect on the adhesion of cells from the spheroids to endothelial cells preexposed to hypoxia” value (cells from 3 day old hMSC spheroids, HUVECs pre-exposed to hypoxia) is reported as “no effect”, the “stimulation of the adhesion of cells from the spheroids to normoxic endothelial cells” value (cells from 3 day old hMSC spheroids, normoxic HUVECs) is reported as 1.7±0.4 times and the “effect on the adhesion of hMSCs from a monolayer to endothelial cells” value (hMSCs from a monolayer, normoxic or pre-exposed to hypoxia HUVECs) is reported as “Neither SDF-1 nor AMD3100 affected the adhesion”.
